Laboratory results taken from article PMC5974469, “A New Family of Capsule Polymerases Generates Teichoic Acid-Like Capsule Polymers in Gram-Negative Pathogens” (mBio, 2018).

Molecular target: T1, Cps3D (Actinobacillus pleuropneumoniae, UniProt A0A2S0ETM3)
T1 construct: MBP-Cps3D-His6 (177 kDa), full-length, tags kept, expressed in E. coli M15[pREP4]
Experiment: HPLC-AEC of donor consumption, PAGE and NMR of polymer
Type: biochemical
Conditions: 20 mM Tris pH 8.0, 10 mM MgCl2, 1 mM DTT, 37 °C; no primer; with UDP-Gal

T1 sequence (A0A2S0ETM3 entry or part of it): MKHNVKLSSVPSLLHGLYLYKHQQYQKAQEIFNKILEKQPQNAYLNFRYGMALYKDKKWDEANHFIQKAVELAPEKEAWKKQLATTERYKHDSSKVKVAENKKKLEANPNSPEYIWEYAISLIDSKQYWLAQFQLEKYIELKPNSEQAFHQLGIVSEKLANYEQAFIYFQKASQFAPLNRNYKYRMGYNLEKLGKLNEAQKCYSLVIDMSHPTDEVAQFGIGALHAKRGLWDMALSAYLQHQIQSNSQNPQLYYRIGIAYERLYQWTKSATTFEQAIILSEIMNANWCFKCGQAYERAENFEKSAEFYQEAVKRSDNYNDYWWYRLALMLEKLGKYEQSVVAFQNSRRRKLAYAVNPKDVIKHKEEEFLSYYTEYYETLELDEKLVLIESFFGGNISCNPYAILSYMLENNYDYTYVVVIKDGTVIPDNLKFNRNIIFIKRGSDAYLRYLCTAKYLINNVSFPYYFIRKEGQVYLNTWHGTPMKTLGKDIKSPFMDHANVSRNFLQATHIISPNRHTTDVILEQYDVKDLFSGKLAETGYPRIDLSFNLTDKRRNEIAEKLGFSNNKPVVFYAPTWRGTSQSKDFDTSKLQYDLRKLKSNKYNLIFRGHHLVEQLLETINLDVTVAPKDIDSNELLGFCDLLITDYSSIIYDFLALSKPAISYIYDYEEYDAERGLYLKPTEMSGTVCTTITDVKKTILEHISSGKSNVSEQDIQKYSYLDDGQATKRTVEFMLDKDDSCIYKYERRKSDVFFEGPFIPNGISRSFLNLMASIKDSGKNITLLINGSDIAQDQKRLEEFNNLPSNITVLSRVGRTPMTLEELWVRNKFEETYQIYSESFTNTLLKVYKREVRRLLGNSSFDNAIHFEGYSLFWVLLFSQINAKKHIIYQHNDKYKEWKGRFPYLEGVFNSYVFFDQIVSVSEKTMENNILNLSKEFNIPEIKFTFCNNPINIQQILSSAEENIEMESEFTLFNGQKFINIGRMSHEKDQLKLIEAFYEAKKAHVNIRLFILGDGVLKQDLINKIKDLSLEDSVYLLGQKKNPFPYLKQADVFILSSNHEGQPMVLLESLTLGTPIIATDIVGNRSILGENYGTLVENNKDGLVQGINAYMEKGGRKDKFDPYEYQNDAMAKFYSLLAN

Nc1ccn([C@@H]2O[C@H](COP(=O)(O)OP(=O)(O)OC[C@H](O)CO)[C@@H](O)[C@H]2O)c(=O)n1 (racemic) [CDP-glycerol]
HPLC-AEC of donor consumption, PAGE and NMR of polymer: both enantiomers are substrates for the enzymes as shown by the complete consumption of CDP-glycerol
